Experimental data reported in US12435061B2 (priority 2020, dated 2025).
Where two headings read alike, the source gives them in different places.

Target: hTRPV3 (Homo sapiens (Human), UniProt Q8NET8)
Assay: Whole-cell patch clamp, hTRPV3 Phase 1 / Phase 2 currents
Type: cell-based
Text: Whole-cell patch clamp experiments permit the detection of currents through the TRPV3 channel in the cell line described above. A glass electrode is brought into contact with a single cell and the membrane is then ruptured, permitting control of the voltage of the cell membrane and measurement of currents flowing across the membrane using the amplifier attached to the electrode. A perfusion system permits control of the extracellular solution, including the addition of blockers and activators of the current. The current can be activated by heating this solution to 28° C. or warmer or by addition of 20 μM 2-APB to the solution.
TRPV3 cells were induced 20-48 hours, removed from growth plates, and replated at low density (to attain good single-cell physical separation) on glass coverslips for measurement. In some cases, cells were grown in low density overnight on glass coverslips. Patch clamp recordings were made in the whole-cell mode with a holding potential of −40 mV. Every 5 seconds, a voltage ramp was applied from −120 to +100 mV, 400 ms in duration. Currents elicited were quantified at −80 mV and +80 mV. […] External solution was Ringer's solution described above.
P1 refers to the Phase 1 current for human (h) TRPV3, and P2 refers to the Phase 2 current for human (h) TRPV3.
In Tables 3 and 4, Phase 1 refers to Phase 1 current for human (h) TRPV3 or rat (r) TRPV3, and Phase 2 refers to Phase 2 current for human (h) TRPV3 or rat (r) TRPV3. The hTRPV3 and rTRPV3 assays were performed as described herein. hERG refers to the inhibition the human ERG (hERG) channel. NaV1.5, refers to the pore forming aL-subunit of the voltage-dependent cardiac Na(+) channel and is an integral membrane protein involved in the initiation and conduction of action potentials. hTRPV3 HAMA IC50 refers to the IC50 of TRPV3 cells stably expressed in TRex-293 cells. Solubility Ringer refers to the compounds' solubility in Ringer's solution. LM T1/2 refers to liver microsome half-lives in either rat or human liver microsomes. FLIPR IC50 refers to the IC50 of the test compounds against recombinant hTRPV3 cells.

[1] = Phase 1 current, human TRPV3, read-out: hTRPV3 (nM) Phase 1
[2] = Phase 1 current, inward, whole-cell patch clamp, read-out: hTRPV3 Patch P1 Inwd
[3] = Phase 1 current, read-out: hTRPV3 (nM) (Phase 1)
[4] = Phase 2 current, inward, whole-cell patch clamp, read-out: hTRPV3 Patch P2 Inwd
[5] = Phase 2 current, read-out: hTRPV3 (nM) (Phase 2)

hTRPV3, sequence (Q8NET8 whole entry): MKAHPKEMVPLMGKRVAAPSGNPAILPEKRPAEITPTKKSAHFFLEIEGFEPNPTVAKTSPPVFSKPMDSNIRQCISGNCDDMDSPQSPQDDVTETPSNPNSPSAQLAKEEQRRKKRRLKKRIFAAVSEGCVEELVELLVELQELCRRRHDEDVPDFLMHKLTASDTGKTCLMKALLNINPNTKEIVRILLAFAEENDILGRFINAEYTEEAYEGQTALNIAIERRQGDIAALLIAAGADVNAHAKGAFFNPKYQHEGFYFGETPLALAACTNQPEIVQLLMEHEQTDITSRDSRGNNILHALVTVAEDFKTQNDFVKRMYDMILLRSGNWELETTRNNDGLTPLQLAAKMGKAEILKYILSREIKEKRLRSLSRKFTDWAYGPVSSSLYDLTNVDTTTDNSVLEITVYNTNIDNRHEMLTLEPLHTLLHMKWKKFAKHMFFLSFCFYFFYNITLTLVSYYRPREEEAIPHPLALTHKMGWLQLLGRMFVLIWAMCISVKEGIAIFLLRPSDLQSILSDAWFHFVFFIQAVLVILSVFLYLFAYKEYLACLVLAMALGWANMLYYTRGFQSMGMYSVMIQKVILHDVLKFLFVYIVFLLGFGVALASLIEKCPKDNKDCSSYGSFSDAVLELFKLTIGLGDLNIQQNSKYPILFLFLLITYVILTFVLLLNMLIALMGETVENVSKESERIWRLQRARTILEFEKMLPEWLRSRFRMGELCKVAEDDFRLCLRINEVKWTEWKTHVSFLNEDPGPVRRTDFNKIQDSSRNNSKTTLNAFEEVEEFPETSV

For `COCc1ccccc1-c1ccc(C2CCN(C(=O)c3ccc(Cl)cn3)C2)c(CO)c1` (stereo not drawn) [Compound 2-65, (5-chloropyridin-2-yl)(3-(3-(hydroxymethyl)-2′-(methoxymethyl)biphenyl-4-yl)pyrrolidin-1-yl)methanone], the IC50 [1] was 97.7 nM and the IC50 [2] was 10 to 100 nM.

`CCc1nccnc1-c1ccc(C2CCN(C(=O)c3ccc(F)cn3)C2)c(CO)c1` (stereo not drawn) [Compound 2-68, (3-(4-(3-ethylpyrazin-2-yl)-2-(hydroxymethyl)phenyl)pyrrolidin-1-yl)(5-fluoropyridin-2-yl)methanone] gave an IC50 [1] greater than 3200 nM and an IC50 [2] greater than 1000 nM.

With `OCCc1cc(C(O)c2cccc(F)c2)ccc1N1CC[C@H](Oc2ncccc2Cl)C1` (stereo partly drawn) [Compound 1-312, 2-(2-((S)-3-(3-chloropyridin-2-yloxy)pyrrolidin-1-yl)-5-((3-fluorophenyl)(hydroxy)methyl)phenyl)ethanol] the IC50 [2] was greater than 1000 nM and the IC50 [3] was roughly 1920 nM.

`O=C(c1cccc(F)c1)c1ccc(N2CC[C@H](Oc3ncccc3Cl)C2)c(CCO)c1` [Compound 1-311, (S)-(4-(3-(3-chloropyridin-2-yloxy)pyrrolidin-1-yl)-3-(2-hydroxyethyl)phenyl)(3-fluorophenyl)methanone] gave an IC50 [2] of 100 to 1000 nM and an IC50 [3] of 417 nM.

`O=C(c1ccc(F)cc1)c1ccc(C2CCN(C(=O)c3ncccc3Cl)C2)c(CO)c1` (stereo not drawn) [Compound 2-10, (4-(1-(3-chloropicolinoyl)pyrrolidin-3-yl)-3-(hydroxymethyl)phenyl)(4-fluorophenyl)methanone] was tested, and the IC50 [1] was greater than 3200 nM and the IC50 [2] was greater than 1000 nM.

Molecule `O=C(c1ncccc1Cl)N1CCC(c2ccc(-c3ccccc3C3CC3)cc2CO)C1` (stereo not drawn) [Compound 2-55, (3-chloropyridin-2-yl)(3-(2′-cyclopropyl-3-(hydroxymethyl)biphenyl-4-yl)pyrrolidin-1-yl)methanone] has an IC50 [1] of 88.4 nM and an IC50 [2] of 10 to 100 nM.

With `Cc1ccc(C(=O)c2ccc(N3CC[C@H](Oc4ncccc4F)C3)c(CCO)c2)cc1` [Compound 1-309, (S)-(4-(3-(3-fluoropyridin-2-yloxy)pyrrolidin-1-yl)-3-(2-hydroxyethyl)phenyl)(p-tolyl)methanone] the IC50 [2] was greater than 1000 nM, the IC50 [3] was roughly 2080 nM and the IC50 [4] was 100 to 1000 nM. For the same molecule, the IC50 [5] was 822 nM.

Molecule “(S)-(6-(2-ethylphenoxy)-3-(3-(5-(trifluoromethyl)pyridin-2-yloxy)pyrrolidin-1-yl)pyridin-2-yl)methanol [Compound 1-212]” has an IC50 [2] greater than 1000 nM and an IC50 [3] greater than 3200 nM.

Work on `N#Cc1ccccc1-c1ccc(N2CC[C@H](Oc3ccc(F)cn3)C2)c(CO)n1` [Compound 1-210, (S)-2-(5-(3-(5-fluoropyridin-2-yloxy)pyrrolidin-1-yl)-6-(hydroxymethyl)pyridin-2-yl)benzonitrile] yielded an IC50 [2] of 100 to 1000 nM and an IC50 [3] of 972 nM.

For `N#Cc1ccc(-c2ccc(N3CC[C@H](Oc4ccc(C(F)(F)F)cn4)C3)c(CO)c2)cc1` [Compound 1-252, (S)-3′-(hydroxymethyl)-4′-(3-(5-(trifluoromethyl)pyridin-2-yloxy)pyrrolidin-1-yl)biphenyl-4-carbonitrile], the IC50 [2] was 100 to 1000 nM and the IC50 [3] was 886 nM.

With `FC(F)(F)c1ccc(O[C@@H]2CCN(c3ccccc3OCc3ccccc3)C2)nc1` [Compound 1-38, (R)-2-(1-(2-(benzyloxy)phenyl)pyrrolidin-3-yloxy)-5-(trifluoromethyl)pyridine] the IC50 [2] was greater than 1000 nM.

`Cc1cccc(C(O)c2ccc(N3CC[C@H](Oc4ncccc4Cl)C3)c(CO)c2)c1` (stereo partly drawn) [Compound 1-281, (4-((S)-3-(3-chloropyridin-2-yloxy)pyrrolidin-1-yl)-3-(hydroxymethyl)phenyl)(m-tolyl)methanol] was tested, and the IC50 [2] was greater than 1000 nM and the IC50 [3] was 1100 nM.

`CCc1ccccc1Oc1ccc(N2CC[C@H](Oc3ccc(C)cn3)C2)c(CO)n1` [Compound 1-214, (S)-(6-(2-ethylphenoxy)-3-(3-(5-methylpyridin-2-yloxy)pyrrolidin-1-yl)pyridin-2-yl)methanol] was tested, and the “hTRPV3 (nM) (Phase 1)” value (Phase 1 current) was “Incomplete Block (Phase 1)”.

`OCCc1cc(Oc2ccccc2F)ccc1N1CC[C@H](Oc2ccccn2)C1` [Compound 1-334] was tested, and the IC50 [2] was 100 to 1000 nM, the IC50 [3] was 289 nM and the IC50 [4] was 100 to 1000 nM. The IC50 [5] was roughly 243 nM.
